Experimental data reported in ChEMBL document CHEMBL6074653, “Reversal of insulin resistance to combat type 2 diabetes mellitus by newer thiazolidinedione's in fructose induced insulin resistant rats” (Eur J Med Chem, 2024).
The source made the active and inactive calls. The calls are words filed in the database; no cut-off is given here.

Tests used:
[1] = test system: Rattus norvegicus; assay: Anti-diabetic activity in fructose-treated male Wistar rat assessed as decrease in MDA level in liver at 10 mg/kg, po administered for 15 days (reference value: 294.65 +/-11.78 nM/mg ); type: functional; settings: time 15 day
[2] = test system: Rattus norvegicus; assay: Anti-diabetic activity in fructose-treated male Wistar rat assessed as decrease in VLDL level at 10 mg/kg, po administered for 15 days (reference value: 28 +/-0.28 mg/dL); type: functional; settings: time 15 day
[3] = Drug recovery in rat plasma at 100 mg/kg, po by HPLC analysis; type: ADME, organism-based; settings: in vivo
[4] = test system: Rattus norvegicus; assay: Anti-diabetic activity in fructose-treated male Wistar rat assessed as decrease in triglycerides level at 10 mg/kg, po administered for 15 days (reference value: 140.03 +/-3.55 mg/dL); type: functional; settings: time 15 day
[5] = AUC (0 to t) in male Wistar rat at 10 mg/kg, po measured upto 24 hrs; type: ADME, organism-based; settings: in vivo
[6] = test system: Rattus norvegicus; assay: Anti-diabetic activity in Wistar rat Diaphragm assessed as […] at 10 mg/kg, po administered for 15 days; type: functional, organism-based; settings: time 15.0 day
[7] = AUC (0 to infinity) in male Wistar rat at 10 mg/kg, po measured upto 24 hrs; type: ADME, organism-based; settings: in vivo
[8] = test system: Rattus norvegicus; assay: Anti-diabetic activity in fructose-treated male Wistar rat assessed as increase in GSH level in liver at 10 mg/kg, po administered for 15 days (reference value: 39.98 +/-0.86 nM/mg ); type: functional; settings: time 15 day
[9] = test system: Rattus norvegicus; assay: Anti-diabetic activity in fructose-treated male Wistar rat assessed as increase in glycogen content in skeletal muscle at 10 mg/kg, po administered for 15 days; type: functional, organism-based; settings: time 15.0 day
[10] = Cmax in male Wistar rat at 10 mg/kg, po measured upto 24 hrs; type: ADME, organism-based; settings: in vivo
[11] = Drug recovery in rat plasma at 50 mg/kg, po by HPLC analysis; type: ADME, organism-based; settings: in vivo
[12] = test system: Rattus norvegicus; assay: Anti-diabetic activity in fructose-treated male Wistar rat assessed as increase in SOD level in liver at 10 mg/kg, po administered for 15 days (reference value: 13.25 +/-1.35 U/ml); type: functional; settings: time 15 day
[13] = Drug recovery in rat plasma at 150 mg/kg, po by HPLC analysis; type: ADME, organism-based; settings: in vivo
[14] = Half life in male Wistar rat at 10 mg/kg, po measured upto 24 hrs; type: ADME, organism-based; settings: in vivo
[15] = Acute toxicity in male Wistar rat assessed as body weight gain at 10 mg/kg, po administered for 15 days; type: organism-based; settings: in vivo, 360 h, time 15 day
[16] = test system: Rattus norvegicus; assay: Anti-diabetic activity in fructose-treated male Wistar rat assessed as decrease in insulin level at 10 mg/kg, po administered for 15 days by insulin tolerance test; type: functional, organism-based; settings: time 15.0 day
[17] = Retention time of the compound by HPLC analysis; type: physicochemical
[18] = Tmax in male Wistar rat at 10 mg/kg, po measured upto 24 hrs; type: ADME, organism-based; settings: in vivo
[19] = test system: L6; assay: Induction of glucose uptake in rat L6 cells incubated for 24 hrs by GOD-POD technique; type: functional; set-up: concentration or dose not given beside the values
[20] = test system: Rattus norvegicus; assay: Anti-diabetic activity in fructose-treated male Wistar rat assessed as decrease in SGOT level at 10 mg/kg, po administered for 15 days (reference value: […]); type: functional; settings: time 15 day
[21] = test system: Rattus norvegicus; assay: Anti-diabetic activity in fructose-treated male Wistar rat assessed as increase in glycogen content in liver at 10 mg/kg, po administered for 15 days; type: functional, organism-based; settings: time 15.0 day
[22] = test system: Rattus norvegicus; assay: Anti-diabetic activity in fructose-treated male Wistar rat assessed as increase in LDL level at 10 mg/kg, po administered for 15 days (reference value: 40.32 +/-1.08 mg/dL); type: functional; settings: time 15 day
[23] = test system: Rattus norvegicus; assay: Anti-diabetic activity in fructose-treated male Wistar rat assessed as change in HOMO-IR level at 10 mg/kg, po administered for 15 days; type: functional, organism-based; settings: time 15.0 day
[24] = test system: Rattus norvegicus; assay: Anti-diabetic activity in fructose-treated male Wistar rat assessed as increase in HDL level at 10 mg/kg, po administered for 15 days (reference value: 25.35 +/-2.03 mg/dL); type: functional; settings: time 15 day
[25] = test system: Rattus norvegicus; assay: Anti-diabetic activity in fructose-treated male Wistar rat assessed as increase in CAT level in liver at 10 mg/kg, po administered for 15 days (reference value: 27.65 +/-1.02 U/min); type: functional; settings: time 15 day
[26] = test system: Rattus norvegicus; assay: Anti-diabetic activity in fructose-treated male Wistar rat assessed as decrease in SGPT level at 10 mg/kg, po administered for 15 days (reference value: […]); type: functional; settings: time 15 day
[27] = test system: Rattus norvegicus; assay: Anti-diabetic activity in fructose-treated male Wistar rat assessed as decrease in HOMO-IR level at 10 mg/kg, po administered for 15 days; type: functional, organism-based; settings: time 15.0 day
[28] = test system: Rattus norvegicus; assay: Anti-diabetic activity in fructose-treated male Wistar rat assessed as increase in total cholesterol level at 10 mg/kg, po administered for 15 days (reference value: 93.68 +/-1.68 mg/dL); type: functional; settings: time 15 day
[29] = test system: Rattus norvegicus; assay: Anti-diabetic activity in fructose-treated male Wistar rat assessed as decrease in fasting blood glucose level at 10 mg/kg, po administered for 15 days; type: functional, organism-based; settings: time 15.0 day

SMILES: CCc1ccc(CCOc2ccc(CC3SC(=O)NC3=O)cc2)nc1 (centres undefined) [PIOGLITAZONE]
- Activity [1]: 178.35 nM/mg
- Activity [2]: 12.7 mg/dL
- Drug recovery [3]: 97.4%
- Activity [4]: 63.57 mg/dL
- AUC(0-t) at 24 h [5]: 41500 ng·h/mL
- Activity [6]: Active
- AUC(0-inf) [7]: 43600 ng·h/mL
- Activity [8]: 77.65 nM/mg
- Activity [9]: Active
- Cmax [10]: 3130 ng/mL
- Drug recovery [11]: 97.1%
- Activity [12]: 27.65 U/ml
- Drug recovery [13]: 98%
- half-life [14]: 4.92 h
- Activity [15]: Non-toxic
- Activity [16]: Active
- Retention_time [17]: 2.4 min
- Tmax [18]: 2.69 h
- Activity [19]: 82.36%
- Activity [20]: 32.45 U/L
- Activity [21]: Active
- Activity [22]: 49.35 mg/dL
- Activity [23]: Active
- Activity [24]: 60.72 mg/dL
- Activity [25]: 55.63 U/min
- Activity [26]: 29.73 U/L
- Activity [27]: inactive
- Activity [28]: 122.79 mg/dL
- Activity [29]: Active
